Laboratory results from PubChem BioAssay AID256 (DTP/NCI, 2004).
Toxic doses and inconclusive results are not listed. The calls were made as follows: active = survival T/C of 150% or more; inactive = T/C below 125% in these data.

Test system: CD2F1 mice, L1210 leukemia ip, survival T/C
Assay: NCI In Vivo Anticancer Drug Screen. Data for tumor model L1210 Leukemia (intraperitoneal) in CD2F1 (CDF1) mice
Conditions: endpoint: mean survival time, higher = longer survival
Method in brief: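 Ratio T/C, where T is the treated-group value and C the vehicle-dosed control value, from mice implanted with a transplantable tumor.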

[1] = dose: 100.0 mg/kg/injection, schedule: Q01DX009 (ip), vehicle: saline with Tween-80
[2] = dose: 100.0 mg/kg/injection, schedule: Q04DX003 (ip), vehicle: saline with Tween-80
[3] = dose: 200.0 mg/kg/injection, schedule: Q01DX009 (ip), vehicle: saline with Tween-80
[4] = dose: 200.0 mg/kg/injection, schedule: Q04DX003 (ip), vehicle: saline with Tween-80
[5] = dose: 400.0 mg/kg/injection, schedule: Q01DX009 (ip), vehicle: saline with Tween-80
[6] = dose: 400.0 mg/kg/injection, schedule: Q04DX003 (ip), vehicle: saline with Tween-80
[7] = dose: 100.0 mg/kg/injection, schedule: Q01DX001 (ip), vehicle: saline with Tween-80
[8] = dose: 200.0 mg/kg/injection, schedule: Q01DX001 (ip), vehicle: saline with Tween-80
[9] = dose: 400.0 mg/kg/injection, schedule: Q01DX001 (ip), vehicle: saline with Tween-80
[10] = dose: 100.0 mg/kg/injection, schedule: Q01DX001 (ip), vehicle: saline
[11] = dose: 200.0 mg/kg/injection, schedule: Q01DX001 (ip), vehicle: saline
[12] = dose: 400.0 mg/kg/injection, schedule: Q01DX001 (ip), vehicle: saline
[13] = dose: 100.0 mg/kg/injection, schedule: Q01DX001 (ip), vehicle: Klucel (hydroxypropylcellulose) (HPC)
[14] = dose: 200.0 mg/kg/injection, schedule: Q01DX001 (ip), vehicle: Klucel (hydroxypropylcellulose) (HPC)
[15] = dose: 400.0 mg/kg/injection, schedule: Q01DX001 (ip), vehicle: Klucel (hydroxypropylcellulose) (HPC)

Measured: T/C

Cc1cc(C(=O)c2ccccn2)c2cc(Cl)cc(Cl)c2n1
inactive: [1] 93 % of control | [2] 88 % of control | [3] 91 % of control | [4] 94 % of control | [5] 87 % of control | [6] 94 % of control

CC(C)(C)OC(=O)NC(Cc1c[nH]c2ccccc12)C(=O)ON1C(=O)CCC1=O (centres undefined)
inactive: [2] 95 % of control | [4] 95 % of control

Clc1nc[nH]c1Cl
inactive: dose: 25.0 mg/kg/injection, schedule: Q01DX009 (ip), vehicle: saline with Tween-80 97 % of control | dose: 50.0 mg/kg/injection, schedule: Q01DX009 (ip), vehicle: saline with Tween-80 95 % of control | [1] 97 % of control | [2] 95 % of control

O=C(O)C(=CCc1cccc2ccccc12)C(=O)O
inactive: dose: 100.0 mg/kg/injection, schedule: Q04DX003 (ip), vehicle: Klucel (hydroxypropylcellulose) (HPC) 101 % of control | dose: 200.0 mg/kg/injection, schedule: Q04DX003 (ip), vehicle: Klucel (hydroxypropylcellulose) (HPC) 100 % of control | dose: 400.0 mg/kg/injection, schedule: Q04DX003 (ip), vehicle: Klucel (hydroxypropylcellulose) (HPC) 103 % of control

CCOC(=O)CC(c1ccccc1)C(C(=O)OCC)C(=O)OCC (centres undefined)
inactive: [1] 91 % of control | [3] 91 % of control | [5] 98 % of control

COc1ccccc1C(=O)CC(O)(C(F)(F)F)C(F)(F)F
inactive: [7] 95 % of control | [8] 100 % of control | [9] 109 % of control

O=C(c1ccc(Cl)cc1)c1no[n+]([O-])c1C(=O)c1ccc(Cl)cc1
inactive: [1] 94 % of control | [2] 107 % of control | [3] 100 % of control | [4] 95 % of control | [5] 94 % of control | [6] 95 % of control

O=C(O)c1ccccc1C(=O)c1ccc(Cl)cc1
inactive: [1] 100 % of control | [2] 94 % of control | [3] 110 % of control | [4] 97 % of control | [5] 108 % of control | [6] 95 % of control

O=C(O)C1(C(=O)O)CC2(CCC2)C1
inactive: [10] 100 % of control | [11] 100 % of control | [12] 100 % of control

CCc1ccc(OS(=O)(=O)c2cccc([N+](=O)[O-])c2)cc1
inactive: [1] 98 % of control | [2] 94 % of control | [3] 91 % of control | [4] 105 % of control | [5] 102 % of control | [6] 100 % of control

O=c1[nH]c(=O)n(C2OC(CO)C(O)C2O)cc1Br (centres undefined)
inactive: dose: 100.0 mg/kg/injection, schedule: Q04DX002 (ip), vehicle: saline with Tween-80 109 % of control | dose: 200.0 mg/kg/injection, schedule: Q04DX002 (ip), vehicle: saline with Tween-80 101 % of control | dose: 400.0 mg/kg/injection, schedule: Q04DX002 (ip), vehicle: saline with Tween-80 101 % of control

Oc1ccccc1/C=N/c1nc(-c2ccccc2)cs1.Oc1ccccc1/C=N/c1nc(-c2ccccc2)cs1.[Zn]
inactive: dose: 25.0 mg/kg/injection, schedule: Q01DX001 (ip), vehicle: saline 103 % of control | dose: 50.0 mg/kg/injection, schedule: Q01DX001 (ip), vehicle: saline 100 % of control | [7] 104 % of control | [10] 91 % of control

Cc1nc(N)[nH]c(=O)c1CCCN(c1ccccc1)S(=O)(=O)c1ccc(N)cc1
inactive: [7] 101 % of control | [8] 89 % of control | [9] 89 % of control

CC(C)(C)OC(=O)NCCCCC(NC(=O)OC(C)(C)C)C(=O)O (centres undefined)
inactive: [10] 100 % of control | [11] 110 % of control | [12] 97 % of control

CCNC1=C(C)C(=O)c2c(c(COC(N)=O)c3n2CC(NC(C)=O)C3O)C1=O (centres undefined)
inactive: dose: 33.0 mg/kg/injection, schedule: Q01DX001 (ip), vehicle: carboxymethylcellulose (CMC) 98 % of control | dose: 50.0 mg/kg/injection, schedule: Q01DX001 (ip), vehicle: carboxymethylcellulose (CMC) 98 % of control | dose: 75.0 mg/kg/injection, schedule: Q01DX001 (ip), vehicle: carboxymethylcellulose (CMC) 102 % of control

CCOC(=O)C1(C(=O)OCC)CCC(OCC)N1C(=O)c1ccccc1[N+](=O)[O-] (centres undefined)
inactive: [13] 100 % of control | [14] 92 % of control | [15] 92 % of control

CCOC(=O)c1c[nH]c2ccc([N+](=O)[O-])cc2c1=O
inactive: [13] 111 % of control | [1] 97 % of control | [2] 90 % of control | [14] 96 % of control | [3] 100 % of control | [4] 91 % of control | [15] 100 % of control | [5] 94 % of control | [6] 88 % of control

CC(C)(CC(=O)O)Cc1ccc([N+](=O)[O-])cc1
inactive: [2] 102 % of control | [4] 98 % of control | [6] 102 % of control

NC(=S)N/N=C/c1ccc([N+](=O)[O-])cc1
inactive: dose: 75.0 mg/kg/injection, schedule: Q01DX001 (ip), vehicle: saline with Tween-80 95 % of control

CCCC(=O)Nc1ccccc1
inactive: [7] 96 % of control | [1] 102 % of control | [8] 95 % of control | [3] 102 % of control | [9] 98 % of control | [5] 112 % of control

CC1(C)N=C(N)N=C(N)N1c1ccc(C(=O)c2ccccc2)cc1
inactive: [2] 91 % of control

C[S+](C)CC(=O)c1ccccc1O
inactive: [2] 103 % of control | [4] 99 % of control | [6] 100 % of control

Cc1ccc([I+]c2ccc(C)cc2)cc1
inactive: dose: 0.25 mg/kg/injection, schedule: Q01DX009 (ip), vehicle: Klucel (hydroxypropylcellulose) (HPC) 98 % of control | dose: 0.5 mg/kg/injection, schedule: Q01DX009 (ip), vehicle: Klucel (hydroxypropylcellulose) (HPC) 98 % of control | dose: 1.0 mg/kg/injection, schedule: Q01DX009 (ip), vehicle: Klucel (hydroxypropylcellulose) (HPC) 105 % of control

CCOC(=O)Cc1nnc(N)s1
inactive: [2] 96 % of control | [4] 100 % of control | [6] 102 % of control

C=CCOc1ccc(OC)cc1
inactive: [2] 97 % of control | [4] 97 % of control | [6] 92 % of control

CC(=O)Nc1c(N)nc(Nc2nc3ccccc3[nH]2)[nH]c1=O
inactive: [1] 93 % of control | [2] 97 % of control | [3] 95 % of control | [4] 96 % of control | [5] 93 % of control | [6] 87 % of control
